Where two headings read alike, the source gives them in different places. Starred links: 1 amine or outer side, 2 acyl side, 3 side chain; linkers in the order of their positions; H or OH if unused. Non-standard residues stand in square brackets, D forms with d. Residues, ends and D or L forms follow the SMILES beside them. Groups on a side chain read outwards from the residue. *: point of attachment. C18 diacid = O=C(O)CCCCCCCCCCCCCCCCC(=O)*; γGlu = O=C(O)[C@H](CCC(=O)[*:2])N[*:1]; Palmitoyl = CCCCCCCCCCCCCCCC(=O)*; AEEA = NCCOCCOCC(=O)O; Aib = CC(C)(N)C(=O)O
Legend:
rat CRF2R α receptor = experiment: cAMP agonism at rat CRF2R α receptor in A7R5 rat aortic smooth muscle cells (Example 8); format: cell-based; details: cAMP HTRF, A7R5 rat aortic smooth muscle cell line, 0% HSA
Method: Cells were grown in a T175 culture flask placed at 37° C. to near confluence in medium (DMEM/10% FBS) and collected in 2 ml vials in cell culture medium containing 10% DMSO in a concentration of 10-50 million cells/ml. Each vial contained 1.8 ml cells. The vials were slowly frozen to −80° C. in isopropanol and then transferred in liquid nitrogen for storage. Prior to use, frozen cells were thawed quickly at 37° C. and washed (5 min at 900 rpm) with 20 ml cell buffer (1×HBSS; 20 mM HEPES; 0% or 0.1% HSA). Cells were resuspended in assay buffer (cell buffer plus 2 mM IBMX) and adjusted to a cell density of 1 million cells/ml. For measurement, 5 μl cells (final […]) and 5 μL of test compound were added to a 384-well plate, followed by incubation for 30 minutes at room temperature.
The CAMP content of cells was determined using a kit from Cisbio Corp. (cat. no. 62AM4PEC) based on HTRF (Homogenous Time Resolved Fluorescence). After addition of HTRF reagents diluted in lysis buffer (kit components), the plates were incubated for 1 h, followed by measurement of the fluorescence ratio at 665/620 nm. The percent activity value (E %) was calculated by setting 1000 nM of urocortin 2 (UCN2) as 100%. The in vitro potency of the compounds was quantified by determining the concentrations that caused 50% activation of maximal response (EC50).
Using the procedure described in Example 7, the activity of the compounds at the rat CRF2R α receptor was assessed. The A7R5 rat aortic smooth muscle cell line was used in this study.

human CRF2α receptor = biological target: T1, human CRF2α receptor (Homo sapiens, UniProt Q13324); experiment: cAMP agonism at human CRF2 α receptor in TeloHEAC cells (Example 7); format: cell-based; details: cAMP HTRF, TeloHEAC cells stably expressing human CRF2 α
T1 construct: expressed in transfected cells; host or cells: TeloHEAC
T1 sequence (Q13324 1-411): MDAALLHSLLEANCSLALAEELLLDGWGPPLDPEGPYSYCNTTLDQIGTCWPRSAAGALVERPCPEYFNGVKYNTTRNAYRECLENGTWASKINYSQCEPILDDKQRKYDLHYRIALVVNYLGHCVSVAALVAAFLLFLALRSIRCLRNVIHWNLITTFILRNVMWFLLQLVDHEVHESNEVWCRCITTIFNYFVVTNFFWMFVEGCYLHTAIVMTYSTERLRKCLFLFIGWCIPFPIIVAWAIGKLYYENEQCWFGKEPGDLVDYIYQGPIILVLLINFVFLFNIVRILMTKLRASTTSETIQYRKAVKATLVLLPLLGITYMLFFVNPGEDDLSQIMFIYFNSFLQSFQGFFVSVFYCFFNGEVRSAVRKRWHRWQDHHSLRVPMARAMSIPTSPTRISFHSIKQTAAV
Method in brief: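 HTRF ratio 665/620 nm, read 1 h after lysis reagents, reports cAMP. Cells: thawed stocks, 2000/well, 30 min RT with compound in HBSS, 20 mM HEPES, 0 or 0.1% HSA, 2 mM IBMX. Activity normalised to UCN2 1000 nM = 100%; EC50 from half-maximal activation.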

[1] = 0% HSA, read-out: EC50 [nM], 0% HSA

| SMILES | EC50 (rat CRF2R α receptor) | EC50 (human CRF2α receptor; [1]) | EC50 (human CRF2α receptor; 0.1% HSA, read-out: EC50 [nM], 0.1% HSA) |
| --- | --- | --- | --- |
| CC[C@H](C)[C@H](N)C(=O)N[C@H](C(=O)N[C@@H](CC(C)C)C(=O)N[C@@H](CO)C(=O)N[C@@H](CC(C)C)C(=O)N[C@@H](CC(=O)O)C(=O)N[C@H](C(=O)N1CCC[C@H]1C(=O)N[C@H](C(=O)N[C@@H](CCCCN)C(=O)N[C@@H](CC(C)C)C(=O)N[C@@H](CCCCNC(=O)COCCOCCNC(=O)COCCOCCNC(=O)CC[C@H](NC(=O)CCCCCCCCCCCCCCCCC(=O)O)C(=O)O)C(=O)N[C@@H](CCC(N)=O)C(=O)N[C@H](C(=O)N[C@@H](CC(C)C)C(=O)N[C@@H](CC(C)C)C(=O)N[C@@H](CCC(=O)O)C(=O)N[C@@H](CCC(N)=O)C(=O)N[C@@H](C)C(=O)N[C@@H](CCCCN)C(=O)N[C@@H](CCC(N)=O)C(=O)N[C@@H](CCCCN)C(=O)NC(C)(C)C(=O)N[C@@H](CC(C)C)C(=O)N[C@@H](CCCCN)C(=O)N[C@@H](C)C(=O)N[C@@H](CCC(N)=O)C(=O)N[C@@H](C)C(=O)N[C@@H](CCC(=O)O)C(=O)N[C@H](C(=O)N[C@@H](CC(N)=O)C(=O)N[C@H](C(=O)N[C@@H](CCCNC(=N)N)C(=O)N[C@H](C(=O)N[C@@H](CC(C)C)C(=O)N[C@@H](CCC(=O)O)C(=O)N[C@@H](CCCNC(=N)N)C(=O)N[C@H](C(N)=O)C(C)C)[C@@H](C)CC)C(C)C)[C@@H](C)O)[C@@H](C)CC)[C@@H](C)CC)C(C)C)C(C)C [compound 45] (H-IVLSLDVPIKLK([AEEA-AEEA-γGlu-C18 diacid])QILLEQAKQK[Aib]LKAQAETNVRILERV-NH2) | 47.3 nM | 3.77 nM |  |
| CC[C@H](C)[C@H](NC(C)=O)C(=O)N[C@H](C(=O)N[C@@H](CC(C)C)C(=O)N[C@@H](CO)C(=O)N[C@@H](CC(C)C)C(=O)N[C@@H](CC(=O)O)C(=O)N[C@@H](C(=O)N1CCC[C@H]1C(=O)N[C@H](C(=O)N[C@@H](CCCCN)C(=O)N[C@@H](CC(C)C)C(=O)N[C@@H](CCCCNC(=O)COCCOCCNC(=O)COCCOCCNC(=O)CC[C@H](NC(=O)CCCCCCCCCCCCCCCCC(=O)O)C(=O)O)C(=O)N[C@@H](CCC(N)=O)C(=O)N[C@H](C(=O)N[C@@H](CC(C)C)C(=O)N[C@@H](CC(C)C)C(=O)N[C@@H](CCC(=O)O)C(=O)N[C@@H](CCC(N)=O)C(=O)N[C@@H](C)C(=O)N[C@@H](CCCNC(=N)N)C(=O)N[C@@H](CCC(N)=O)C(=O)N[C@@H](CCCCN)C(=O)NC(C)(C)C(=O)N[C@@H](CCC(N)=O)C(=O)N[C@@H](CCCNC(=N)N)C(=O)N[C@@H](CCC(=O)O)C(=O)N[C@@H](CCC(N)=O)C(=O)N[C@@H](C)C(=O)N[C@@H](CCC(=O)O)C(=O)N[C@@H](CCCCN)C(=O)N[C@@H](CC(N)=O)C(=O)N[C@@H](CCCCN)C(=O)N[C@@H](CCC(N)=O)C(=O)N[C@H](C(=O)N[C@@H](CC(C)C)C(=O)N[C@@H](CCC(=O)O)C(=O)N[C@@H](CCC(N)=O)C(=O)N[C@H](C(N)=O)C(C)C)[C@@H](C)CC)[C@@H](C)CC)[C@@H](C)CC)C(C)C)C(C)C [compound 157] (Ac-IVLSLD[dV]PIKLK([AEEA-AEEA-γGlu-C18 diacid])QILLEQARQK[Aib]QREQAEKNKQILEQV-NH2) | 1.14 nM | 0.12 nM | 2.53 nM |

Continued, values first:

| EC50 (rat CRF2R α receptor) | EC50 (human CRF2α receptor; [1]) | EC50 (human CRF2α receptor; 0.1% HSA, read-out: EC50 [nM], 0.1% HSA) | SMILES |
| --- | --- | --- | --- |
| 48.6 nM |  |  | CC[C@H](C)[C@H](NC(C)=O)C(=O)N[C@H](C(=O)N[C@@H](CC(C)C)C(=O)N[C@@H](CO)C(=O)N[C@@H](CC(C)C)C(=O)N[C@@H](CC(=O)O)C(=O)N[C@@H](C(=O)N1CCC[C@H]1C(=O)N[C@H](C(=O)N[C@@H](CCC(=O)O)C(=O)N[C@@H](CC(C)C)C(=O)N[C@@H](CCCCNC(=O)COCCOCCNC(=O)COCCOCCNC(=O)CC[C@H](NC(=O)CCCCCCCCCCCCCCCCC(=O)O)C(=O)O)C(=O)N[C@@H](CCC(N)=O)C(=O)N[C@H](C(=O)N[C@@H](CC(C)C)C(=O)N[C@@H](CC(C)C)C(=O)N[C@@H](CCC(=O)O)C(=O)N[C@@H](CCC(N)=O)C(=O)N[C@@H](CCC(=O)O)C(=O)N[C@@H](CCCNC(=N)N)C(=O)N[C@@H](CCC(N)=O)C(=O)N[C@@H](CCCCN)C(=O)NC(C)(C)C(=O)N[C@@H](CCC(N)=O)C(=O)N[C@@H](CCCNC(=N)N)C(=O)N[C@@H](CCC(=O)O)C(=O)N[C@@H](CCC(N)=O)C(=O)N[C@@H](C)C(=O)N[C@@H](CCC(=O)O)C(=O)N[C@@H](CCCCN)C(=O)N[C@@H](CC(N)=O)C(=O)N[C@@H](CCCCN)C(=O)N[C@@H](CCC(N)=O)C(=O)N[C@H](C(=O)N[C@@H](CC(C)C)C(=O)N[C@@H](CCC(=O)O)C(=O)N[C@@H](CCC(N)=O)C(=O)N[C@H](C(N)=O)C(C)C)[C@@H](C)CC)[C@@H](C)CC)[C@@H](C)CC)C(C)C)C(C)C [compound 162] (Ac-IVLSLD[dV]PIELK([AEEA-AEEA-γGlu-C18 diacid])QILLEQERQK[Aib]QREQAEKNKQILEQV-NH2) |
| 1.5 nM |  |  | CC[C@H](C)[C@H](N)C(=O)N[C@H](C(=O)N[C@@H](CC(C)C)C(=O)N[C@@H](CO)C(=O)N[C@@H](CC(C)C)C(=O)N[C@@H](CC(=O)O)C(=O)N[C@@H](C(=O)N1CCC[C@H]1C(=O)N[C@H](C(=O)N[C@@H](Cc1c[nH]cn1)C(=O)N[C@@H](CC(C)C)C(=O)N[C@@H](CCCCNC(=O)COCCOCCNC(=O)COCCOCCNC(=O)CC[C@H](NC(=O)CCCCCCCCCCCCCCCCC(=O)O)C(=O)O)C(=O)N[C@@H](CCC(N)=O)C(=O)N[C@H](C(=O)N[C@@H](CC(C)C)C(=O)N[C@@H](CC(C)C)C(=O)N[C@@H](CCC(=O)O)C(=O)N[C@@H](CCC(N)=O)C(=O)N[C@@H](CCC(=O)O)C(=O)N[C@@H](CCCNC(=N)N)C(=O)N[C@@H](CCC(N)=O)C(=O)N[C@@H](CCCCN)C(=O)NC(C)(C)C(=O)N[C@@H](CCC(N)=O)C(=O)N[C@@H](CCCNC(=N)N)C(=O)N[C@@H](CCC(=O)O)C(=O)N[C@@H](CCC(N)=O)C(=O)N[C@@H](C)C(=O)N[C@@H](CCC(=O)O)C(=O)N[C@@H](CCCCN)C(=O)N[C@@H](CC(N)=O)C(=O)N[C@@H](CCCCN)C(=O)N[C@@H](CCC(N)=O)C(=O)N[C@H](C(=O)N[C@@H](CC(C)C)C(=O)N[C@@H](CCC(=O)O)C(=O)N[C@@H](CCC(N)=O)C(=O)N[C@H](C(N)=O)C(C)C)[C@@H](C)CC)[C@@H](C)CC)[C@@H](C)CC)C(C)C)C(C)C [compound 163] (H-IVLSLD[dV]PIHLK([AEEA-AEEA-γGlu-C18 diacid])QILLEQERQK[Aib]QREQAEKNKQILEQV-NH2; N-terminus assumed) |
| 0.61 nM |  |  | CCCCCCCCCCCCCCCC(=O)N[C@@H](CCC(=O)NCCCC[C@H](NC(=O)[C@H](CC(C)C)NC(=O)[C@H](CCCCN)NC(=O)[C@@H](NC(=O)[C@@H]1CCCN1C(=O)[C@H](NC(=O)[C@H](CC(=O)O)NC(=O)[C@H](CC(C)C)NC(=O)[C@H](CO)NC(=O)[C@H](CC(C)C)NC(=O)[C@@H](NC(=O)[C@@H](N)[C@@H](C)CC)C(C)C)C(C)C)[C@@H](C)CC)C(=O)N[C@@H](CCC(N)=O)C(=O)N[C@@H](CCCCN)C(=O)N[C@@H](CC(C)C)C(=O)N[C@@H](CC(C)C)C(=O)N[C@@H](CCCCN)C(=O)N[C@@H](CCC(N)=O)C(=O)N[C@@H](CCC(N)=O)C(=O)N[C@@H](CCCNC(=N)N)C(=O)N[C@@H](CCC(N)=O)C(=O)N[C@@H](CCCNC(=N)N)C(=O)N[C@@H](CCCCN)C(=O)N[C@@H](CCC(=O)O)C(=O)N[C@@H](CCCNC(=N)N)C(=O)N[C@@H](CCC(N)=O)C(=O)N[C@@H](CCC(N)=O)C(=O)N[C@@H](C)C(=O)N[C@@H](CCC(=O)O)C(=O)N[C@@H](CCCCN)C(=O)N[C@@H](CC(N)=O)C(=O)N[C@@H](CCCCN)C(=O)N[C@@H](CCCNC(=N)N)C(=O)N[C@H](C(=O)N[C@@H](CC(C)C)C(=O)N[C@@H](CCC(=O)O)C(=O)N[C@@H](CCCNC(=N)N)C(=O)N[C@H](C(N)=O)C(C)C)[C@@H](C)CC)C(=O)O [compound 227] (H-IVLSLD[dV]PIKLK([γGlu-Palmitoyl])QKLLKQQRQRKERQQAEKNKRILERV-NH2) |
